# Legend:
# [1] = molecular target: T1, phenylethanolamine N-methyltransferase (Oryctolagus cuniculus, UniProt G1TT82); assay: In vitro inhibition of phenylethanolamine N-methyltransferase (Pendleton and Snow procedure); type: biochemical; details: for In Vitro Inhibition % at 10^-4: compound concentration 10^-4; for inhibition at 1 µM: compound concentration 10^-6M
# T1 construct: from tissue
# T1 sequence (G1TT82 1-286): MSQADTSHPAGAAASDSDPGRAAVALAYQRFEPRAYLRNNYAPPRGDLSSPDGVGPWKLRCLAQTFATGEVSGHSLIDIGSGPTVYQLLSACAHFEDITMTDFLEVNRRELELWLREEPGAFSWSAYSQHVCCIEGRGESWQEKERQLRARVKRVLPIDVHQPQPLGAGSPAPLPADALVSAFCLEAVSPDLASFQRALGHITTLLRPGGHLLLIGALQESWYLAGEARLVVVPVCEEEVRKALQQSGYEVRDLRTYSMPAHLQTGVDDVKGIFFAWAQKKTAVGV
# From the text: For example, following are in vitro results obtained from testing several compounds present in the pharmaceutical compositions and methods of this invention.
# PNMT = assay: In vivo conversion of 3H-norepinephrine into 3H-epinephrine in rat adrenals after oral dosing (PNMT inhibition); details: rats, 50 mg./kg. three times over 24 hours, tracer 3H-norepinephrine i.v. (tail vein) one hour after last dose, adrenals assayed 45 min later, active if p<0.05
# From the text: One hour after the last dose the rats are given a tracer dose of ^3 H-norepinephrine into a tail vein. Forty-five minutes later they are sacrificed by decapitation and the adrenals assayed for ^3 H-epinephrine and ^3 H-norepinephrine.
Structure (SMILES),In Vitro Inhibition % at 10^-4 [1] [%],inhibition at 1 µM [1] [%],inhibition of the conversion of radioactive norepinephrine into epinephrine (PNMT)
NC1Cc2ccc([N+](=O)[O-])cc2C1 (stereo not shown) [compound 85391],96,23,
NC1Cc2ccc(Br)cc2C1 (stereo not shown) [compound 85347],96,33,
NC1Cc2ccc(Cl)cc2C1 (stereo not shown) [compound 85506],96,37,
"NC1Cc2ccc(S(N)(=O)=O)cc2C1 (stereo not shown) [5-sulfamoyl-2-aminoindane, 5-sulfamyl-2-indanamine]",,,significantly inhibited this conversion (p<0.01)

# Source: patent US4192888A, “Pharmaceutical compositions and method of inhibiting phenylethanolamine N-methyltransferase” (SmithKline Corporation, priority 1978, dated 1980)
